Laboratory results reported in US12624004B2 (Fudan University, priority 2019, dated 2026).
Counter-ions that a name gives are not always drawn. Like-named read-outs stand apart in the source and are kept apart here.

Key:
[1] = molecular target: T1, μ opioid receptor (Homo sapiens, UniProt P35372); assay: Competition binding assay on membranes of CHO cells expressing μ opioid receptor, [3H]-labeled ligand; details: for Ki: read-out: μOR Ki
T1 construct: expressed in transfected cells; host or cells: CHO cells (membranes)
In short: (§1)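 CHO membranes (20–30 μg protein) incubated with [3H]-labeled ligand at 1–2 nM and test compounds, 30 min at 30° C; nonspecific binding with 1 μM corresponding ligand. Filtered on GF/C, washed with 50 mM Tris-HCl pH 7.4, scintillation-counted. IC50 converted to Ki by Ki=IC50/(1+[L]/Kd).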

[2] = molecular target: T2, δ opioid receptor (Homo sapiens, UniProt P41143); assay: Competition binding assay on membranes of CHO cells expressing δ opioid receptor, [3H]-labeled ligand
T2 construct: expressed in transfected cells; host or cells: CHO cells (membranes)
In short: as §1

[3] = molecular target: T3, κ opioid receptor (Homo sapiens, UniProt P41145); assay: Competition binding assay on membranes of CHO cells expressing κ opioid receptor, [3H]-labeled ligand
T3 construct: expressed in transfected cells; host or cells: CHO cells (membranes)
In short: as §1

[4] = test system: Female mice; assay: In vivo hot plate method analgesia test; details: intraperitoneal; for Maximum percentage effective analgesia (% MPE): Table 5-2, hot plate 55° C.; for % MPE @ 10 mg/kg: Table 3-2, hot plate 55° C.
In short: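 Female mice (~20 g) on a 55° C hot plate, hindpaw response latency as pain threshold (pre-screen 5–30 s, 60 s cut-off). Latencies at 15, 30, 60 and 120 min after intraperitoneal dosing. %MPE = (post−pre latency)/(60−pre)×100, ED50 derived from %MPE.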

[5] = Table 3-1, 1 μM concentration of compounds, read-out: μOR Binding rate (%)
[6] = 0.5 h, Table 3-1, 1 μM concentration of compounds, read-out: δOR Binding rate (%)
[7] = 0.5 h, Table 3-1, 1 μM concentration of compounds, read-out: κOR Binding rate (%)
[8] = 0.5 h, Table 5-1, 1 μM concentration of compound, read-out: μOR Combination rate (%)
[9] = 0.5 h, Table 5-1, 1 μM concentration of compound, read-out: δOR Combination rate (%)
[10] = 0.5 h, Table 5-1, 1 μM concentration of compound, read-out: κOR Combination rate (%)

| SMILES | Maximum percentage effective analgesia (% MPE) ([4]; 10 mg/kg dose) | inhibition at 1 µM [1, 5] | inhibition at 1 µM [2, 6] | inhibition at 1 µM [3, 7] | % MPE @ 10 mg/kg ([4]; 10 mg/kg dose) | inhibition at 1 µM [1, 8] | inhibition at 1 µM [2, 9] | inhibition at 1 µM [3, 10] | also measured |
| --- | --- | --- | --- | --- | --- | --- | --- | --- | --- |
| COc1cccc(C2(O)CCC(N(C)S(=O)(=O)c3cccc(Cl)c3)CC2CN(C)C)c1.Cl (stereo not shown) [3-Chloro-N-(3-((dimethylamino)methyl)-4-hydroxy-4-(methoxyphenyl)cyclohexyl)-N-methylbenzenesulfonamide hydrochloride] | – | – | – | – | – | – | – | – | inhibition at 10 µM ([1]; Table 1-1, 10 μM concentration of compound, mean ± SD of three measurements, read-out: μOR Binding rate (%)): 90 ± 2%; inhibition at 10 µM ([2]; 0.5 h, Table 1-1, 10 μM concentration of compound, read-out: δOR Binding rate (%)): 13.8 ± 3%; inhibition at 10 µM ([3]; 0.5 h, Table 1-1, 10 μM concentration of compound, read-out: κOR Binding rate (%)): 66.6 ± 4.8%; Maximum percentage effective analgesic (% MPE) ([4]; Table 1-2, hot plate 55° C., 5 mg/kg dose): 20.2% |
| COc1cccc(C2(O)CCN(C(=O)Cc3cc(C(F)(F)F)cc(C(F)(F)F)c3)CC2CN(C)C)c1.Cl (stereo not shown) [FWBE1, 2-(3,5-Bis(trifluoromethyl)phenyl)-1-(3-((dimethylamino)methyl)-4-hydroxy-4-(3-methoxyphenyl)piperidin-1-yl)ethyl-1-one hydrochloride] | 17.8% | – | – | – | – | – | – | – | Ki ([1]; Table 5-1): 25.3 ± 4.9 nM; Ki ([2]; Table 5-1, read-out: δOR Ki): 4.39 ± 0.351 µM; Ki ([3]; Table 5-1, read-out: κOR Ki): 4.42 ± 0.181 µM |
| COc1cccc(C2(O)CCN(C(=O)Nc3ccc(Cl)cc3)CC2CN(C)C)c1.Cl (stereo not shown) [FWBF4, N-(4-Chlorophenyl)-3-((dimethylamino)methyl)-4-hydroxy-4-(3-methoxyphenyl)piperidine-1-carboxamide hydrochloride] | – | 48.8 ± 3.9% | 0% | 22.1 ± 10.7% | 68.95% | – | – | – | – |
| COc1cccc([C@@]2(O)CCN(S(=O)(=O)Cc3ccccc3)C[C@@H]2CN(C)C)c1.Cl [(3S,4R)-1-(Benzylsulfonyl)-3-((dimethylamino)methyl)-4-(3-methoxyphenyl)piperidin-4-ol hydrochloride] | – | – | – | – | – | – | – | – | inhibition at 0.1 µM ([1]; Table 4-1 footnote a, 0.1 μM, read-out: μOR Inhibition rate): 24.5 ± 0.64%; inhibition at 0.1 µM ([2]; Table 4-1 footnote a, 0.1 μM, read-out: δOR Inhibition rate): 7.3 ± 4.5%; inhibition at 0.1 µM ([3]; Table 4-1 footnote a, 0.1 μM, read-out: κOR Inhibition rate): 20.75 ± 0.13%; % MPE ([4]; Table 4-2, hot plate 55° C., 10 mg/kg dose): 13.4% |
| COc1cccc(C2(O)CCN(C(=O)Nc3ccc(F)c(Cl)c3)CC2CN(C)C)c1 (stereo not shown) [FWBF9, N-(3-chloro-4-fluorophenyl)-3-((dimethylamino)methyl)-4-hydroxy-4-(3-methoxyphenyl) piperidine-1-carboxamide hydrochloride] | – | 25 ± 13.3% | 21.6 ± 13.4% | 7.1 ± 5% | 18.15% | – | – | – | – |
| COc1cccc(C2(O)CCN(C(=O)Cc3cccc(C#N)c3)CC2CN(C)C)c1.Cl (stereo not shown) [FWBE21, 3-(2-(3-((Dimethylamino)methyl)-4-hydroxy-4-(3-methoxyphenyl)piperidin-1-yl)-2-oxoethyl) benzonitrile hydrochloride] | 67.09% | – | – | – | – | 28.9 ± 17% | 25.4 ± 4.4% | 42.3 ± 3.3% | – |
| COc1cccc(C2(O)CCN(C(=O)Cn3cnnn3)CC2CN(C)C)c1.Cl (stereo not shown) [FWBE7, 1-(3-((Dimethylamino)methyl)-4-hydroxy-4-(3-methoxyphenyl)piperidin-1-yl)-2-(1H-tetrazol-1-yl)ethyl-1-one hydrochloride] | 12.0% | – | – | – | – | 0% | 8.9 ± 2.4% | 22.9 ± 0.6% | – |
| COc1cccc(C2(O)CCN(C(=O)Cc3cc(F)c(F)cc3F)CC2CN(C)C)c1.Cl (stereo not shown) [FWBE18, 1-(3-((Dimethylamino)methyl)-4-hydroxy-4-(3-methoxyphenyl)piperidin-1-yl)-2-(2,4,5-trifluorophenyl)ethyl-1-one hydrochloride] | – | – | – | – | – | 29.7 ± 1.9% | 0% | 61.6 ± 0.7% | ED50 ([4]; Mus musculus, ip, Table 5-2, hot plate): 1.11 mg/kg |
| COc1cccc(C2(O)CCN(C(=O)NCc3ccccc3)CC2CN(C)C)c1 (stereo not shown) [FWBF12, N-Benzyl-3-((dimethylamino)methyl)-4-hydroxy-4-(3-methoxyphenyl)piperidine-1-carboxamide hydrochloride] | – | 35.1 ± 4.4% | 2.6 ± 2.9% | 5.1 ± 4% | 15.07% | – | – | – | – |
| COc1cccc(C2(O)CCN(S(=O)(=O)Cc3ccc(C(F)(F)F)cc3)CC2CN(C)C)c1.Cl (stereo not shown) [FWBH17, 3-((Dimethylamino)methyl)-4-(3-methoxyphenyl)-1-((4-(trifluoromethyl)benzyl)sulfonyl) piperidin-4-ol hydrochloride] | – | – | – | – | – | – | – | – | Ki ([1]; Table 2-1): 261 ± 35.3 nM; inhibition at 1 µM ([2]; 0.5 h, Table 2-1, 1 μM concentration of compound, read-out: δOR Binding rate (%)): 29.3 ± 1.66%; inhibition at 1 µM ([3]; 0.5 h, Table 2-1, 1 μM concentration of compound, read-out: κOR Binding rate (%)): 25.4 ± 5.93%; % MPE (5 mg/kg) ([4]; Table 2-2, hot plate 55° C., 5 mg/kg dose): 48.32% |
